Experiments:
[1] = Cytotoxicity against dog MDCK cells assessed as reduction in cell viability incubated for 48 hrs by celltiter-glo assay; assay type: toxicity, cell-based, Canis lupus familiaris
Influenza A virus [2] = assay: Antiviral activity against influenza A virus A/WSN/33(H1N1) infected in MDCK cells assessed as inhibition of viral-induced cytopathic effect incubated for 48 hrs by microscopic analysis; assay type: functional, organism-based
[3] = Cytotoxicity against dog MDCK cells assessed as cell viability at 30 uM incubated for 48 hrs by celltiter-glo assay; assay type: toxicity, cell-based, Canis lupus familiaris; conditions: read-out: Activity
Influenza A virus [4] = assay: Antiviral activity against influenza A virus A/WSN/33(H1N1) infected in MDCK cells assessed as inhibition of viral growth at 30 uM incubated for 48 hrs by microscopic analysis; assay type: functional; parameters: scale not given: the % may be the effect or the level left
[5] = Selectivity index, ratio of CC50 for cytotoxicity against dog MDCK cells assessed as reduction in cell viability to IC50 for antiviral activity against influenza A virus A/WSN/33(H1N1) infected in MDCK cells assessed as inhibition of viral-induced cytopathic effect; assay type: toxicity, cell-based; conditions: read-out: Ratio CC50/IC50
Influenza A virus [6] = assay: Antiviral activity against influenza A virus B/Sichuan/531/2018 (Victoria) infected in MDCK cells assessed as inhibition of viral growth; assay type: functional, organism-based
Influenza A virus [7] = assay: Antiviral activity against influenza A virus B/Darwin/58/2019 (Yamagata) infected in MDCK cells assessed as inhibition of viral growth; assay type: functional, organism-based
[8] = Selectivity index, ratio of CC50 for cytotoxicity against dog MDCK cells assessed as reduction in cell viability to IC50 for antiviral activity against influenza A virus B/Sichuan/531/2018 (Victoria) infected in MDCK cells assessed as inhibition of viral growth; assay type: toxicity, cell-based; conditions: read-out: Ratio CC50/IC50
[9] = Selectivity index, ratio of CC50 for cytotoxicity against dog MDCK cells assessed as reduction in cell viability to IC50 for antiviral activity against influenza A virus B/Darwin/58/2019 (Yamagata) infected in MDCK cells assessed as inhibition of viral growth; assay type: toxicity, cell-based; conditions: read-out: Ratio CC50/IC50
Erythrocyte = assay: Hemolytic activity in rabbit RBC assessed as hemolysis at 300 uM incubated for 2 hr by spectrophotometry analysis; assay type: toxicity, cell-based, Oryctolagus cuniculus

SMILES | CC50 at 48 h [1] [µM] | IC50 (Influenza A virus [2]) [µM] | viability at 48 h, 30 µM [3] [%] | Activity (Influenza A virus [4]) [%] | selectivity ratio [5] | IC50 (Influenza A virus [6]) [µM] | IC50 (Influenza A virus [7]) [µM] | selectivity ratio [8] | selectivity ratio [9] | Activity (Erythrocyte)
COC(=O)c1cc(OCc2cn(CCOCCOCCOCCNC(=O)c3cc(OCc4cn(CCOCCOCCOCCNC(=O)[C@]56CCC(C)(C)C[C@H]5C5=CC[C@@H]7[C@@]8(C)CC[C@H](O)C(C)(C)[C@@H]8CC[C@@]7(C)[C@]5(C)CC6)nn4)c(OCc4cn(CCOCCOCCOCCNC(=O)[C@]56CCC(C)(C)C[C@H]5C5=CC[C@@H]7[C@@]8(C)CC[C@H](O)C(C)(C)[C@@H]8CC[C@@]7(C)[C@]5(C)CC6)nn4)c(OCc4cn(CCOCCOCCOCCNC(=O)[C@]56CCC(C)(C)C[C@H]5C5=CC[C@@H]7[C@@]8(C)CC[C@H](O)C(C)(C)[C@@H]8CC[C@@]7(C)[C@]5(C)CC6)nn4)c3)nn2)c(OCc2cn(CCOCCOCCOCCNC(=O)c3cc(OCc4cn(CCOCCOCCOCCNC(=O)[C@]56CCC(C)(C)C[C@H]5C5=CC[C@@H]7[C@@]8(C)CC[C@H](O)C(C)(C)[C@@H]8CC[C@@]7(C)[C@]5(C)CC6)nn4)c(OCc4cn(CCOCCOCCOCCNC(=O)[C@]56CCC(C)(C)C[C@H]5C5=CC[C@@H]7[C@@]8(C)CC[C@H](O)C(C)(C)[C@@H]8CC[C@@]7(C)[C@]5(C)CC6)nn4)c(OCc4cn(CCOCCOCCOCCNC(=O)[C@]56CCC(C)(C)C[C@H]5C5=CC[C@@H]7[C@@]8(C)CC[C@H](O)C(C)(C)[C@@H]8CC[C@@]7(C)[C@]5(C)CC6)nn4)c3)nn2)c(OCc2cn(CCOCCOCCOCCNC(=O)c3cc(OCc4cn(CCOCCOCCOCCNC(=O)[C@]56CCC(C)(C)C[C@H]5C5=CC[C@@H]7[C@@]8(C)CC[C@H](O)C(C)(C)[C@@H]8CC[C@@]7(C)[C@]5(C)CC6)nn4)c(OCc4cn(CCOCCOCCOCCNC(=O)[C@]56CCC(C)(C)C[C@H]5C5=CC[C@@H]7[C@@]8(C)CC[C@H](O)C(C)(C)[C@@H]8CC[C@@]7(C)[C@]5(C)CC6)nn4)c(OCc4cn(CCOCCOCCOCCNC(=O)[C@]56CCC(C)(C)C[C@H]5C5=CC[C@@H]7[C@@]8(C)CC[C@H](O)C(C)(C)[C@@H]8CC[C@@]7(C)[C@]5(C)CC6)nn4)c3)nn2)c1 | > 30 | 47.1 | 100 | 65.08 | > 0.64 |  |  |  |  | 
CCOC(=O)C1=C[C@@H](OC(CC)CC)[C@H](NC(C)=O)[C@@H](N)C1.O=P(O)(O)O [OSELTAMIVIR PHOSPHATE] | > 100 |  | 100 | 89.22 | > 55 | > 100 | > 100 |  |  | 
CC1(C)CC[C@]2(C(=O)O)CC[C@]3(C)C(=CC[C@@H]4[C@@]5(C)CC[C@H](O)C(C)(C)[C@@H]5CC[C@]43C)[C@@H]2C1 [OLEANOLIC_ACID] | > 100 |  | 99 | 25.06 | > 1.38 |  |  |  |  | 
O=C1c2c(O)c(=O)ccn2N([C@@H]2c3ccccc3SCc3c2ccc(F)c3F)[C@@H]2COCCN12 [BALOXAVIR] | 9.56 | 0.009 |  |  | 1650 | 0.07 | 3.78 | 137 | 2.53 | 
CC1(C)CC[C@]2(C(=O)NCCOCCOCCOCCOCCn3cc(COc4cc(C(=O)NCCNC(=O)OCCn5cc(COc6cc(OCc7cn(CCOC(=O)NCCNC(=O)c8cc(OCc9cn(CCOCCOCCOCCOCCNC(=O)[C@]%10%11CCC(C)(C)C[C@H]%10C%10=CC[C@@H]%12[C@@]%13(C)CC[C@H](O)C(C)(C)[C@@H]%13CC[C@@]%12(C)[C@]%10(C)CC%11)nn9)c(OCc9cn(CCOCCOCCOCCOCCNC(=O)[C@]%10%11CCC(C)(C)C[C@H]%10C%10=CC[C@@H]%12[C@@]%13(C)CC[C@H](O)C(C)(C)[C@@H]%13CC[C@@]%12(C)[C@]%10(C)CC%11)nn9)c(OCc9cn(CCOCCOCCOCCOCCNC(=O)[C@]%10%11CCC(C)(C)C[C@H]%10C%10=CC[C@@H]%12[C@@]%13(C)CC[C@H](O)C(C)(C)[C@@H]%13CC[C@@]%12(C)[C@]%10(C)CC%11)nn9)c8)nn7)cc(OCc7cn(CCOC(=O)NCCNC(=O)c8cc(OCc9cn(CCOCCOCCOCCOCCNC(=O)[C@]%10%11CCC(C)(C)C[C@H]%10C%10=CC[C@@H]%12[C@@]%13(C)CC[C@H](O)C(C)(C)[C@@H]%13CC[C@@]%12(C)[C@]%10(C)CC%11)nn9)c(OCc9cn(CCOCCOCCOCCOCCNC(=O)[C@]%10%11CCC(C)(C)C[C@H]%10C%10=CC[C@@H]%12[C@@]%13(C)CC[C@H](O)C(C)(C)[C@@H]%13CC[C@@]%12(C)[C@]%10(C)CC%11)nn9)c(OCc9cn(CCOCCOCCOCCOCCNC(=O)[C@]%10%11CCC(C)(C)C[C@H]%10C%10=CC[C@@H]%12[C@@]%13(C)CC[C@H](O)C(C)(C)[C@@H]%13CC[C@@]%12(C)[C@]%10(C)CC%11)nn9)c8)nn7)c6)nn5)cc(OCc5cn(CCOCCOCCOCCOCCNC(=O)[C@]67CCC(C)(C)C[C@H]6C6=CC[C@@H]8[C@@]9(C)CC[C@H](O)C(C)(C)[C@@H]9CC[C@@]8(C)[C@]6(C)CC7)nn5)c4OCc4cn(CCOCCOCCOCCOCCNC(=O)[C@]56CCC(C)(C)C[C@H]5C5=CC[C@@H]7[C@@]8(C)CC[C@H](O)C(C)(C)[C@@H]8CC[C@@]7(C)[C@]5(C)CC6)nn4)nn3)CC[C@]3(C)C(=CC[C@@H]4[C@@]5(C)CC[C@H](O)C(C)(C)[C@@H]5CC[C@]43C)[C@@H]2C1 | > 30 |  | 99.3 | 53.88 |  |  |  |  |  | Non-Toxic
CC1(C)CC[C@]2(C(=O)NCCOCCOCCn3cc(COc4cc(C(=O)NCCNC(=O)OCCn5cc(COc6cc(OCc7cn(CCOC(=O)NCCNC(=O)c8cc(OCc9cn(CCOCCOCCNC(=O)[C@]%10%11CCC(C)(C)C[C@H]%10C%10=CC[C@@H]%12[C@@]%13(C)CC[C@H](O)C(C)(C)[C@@H]%13CC[C@@]%12(C)[C@]%10(C)CC%11)nn9)c(OCc9cn(CCOCCOCCNC(=O)[C@]%10%11CCC(C)(C)C[C@H]%10C%10=CC[C@@H]%12[C@@]%13(C)CC[C@H](O)C(C)(C)[C@@H]%13CC[C@@]%12(C)[C@]%10(C)CC%11)nn9)c(OCc9cn(CCOCCOCCNC(=O)[C@]%10%11CCC(C)(C)C[C@H]%10C%10=CC[C@@H]%12[C@@]%13(C)CC[C@H](O)C(C)(C)[C@@H]%13CC[C@@]%12(C)[C@]%10(C)CC%11)nn9)c8)nn7)cc(OCc7cn(CCOC(=O)NCCNC(=O)c8cc(OCc9cn(CCOCCOCCNC(=O)[C@]%10%11CCC(C)(C)C[C@H]%10C%10=CC[C@@H]%12[C@@]%13(C)CC[C@H](O)C(C)(C)[C@@H]%13CC[C@@]%12(C)[C@]%10(C)CC%11)nn9)c(OCc9cn(CCOCCOCCNC(=O)[C@]%10%11CCC(C)(C)C[C@H]%10C%10=CC[C@@H]%12[C@@]%13(C)CC[C@H](O)C(C)(C)[C@@H]%13CC[C@@]%12(C)[C@]%10(C)CC%11)nn9)c(OCc9cn(CCOCCOCCNC(=O)[C@]%10%11CCC(C)(C)C[C@H]%10C%10=CC[C@@H]%12[C@@]%13(C)CC[C@H](O)C(C)(C)[C@@H]%13CC[C@@]%12(C)[C@]%10(C)CC%11)nn9)c8)nn7)c6)nn5)cc(OCc5cn(CCOCCOCCNC(=O)[C@]67CCC(C)(C)C[C@H]6C6=CC[C@@H]8[C@@]9(C)CC[C@H](O)C(C)(C)[C@@H]9CC[C@@]8(C)[C@]6(C)CC7)nn5)c4OCc4cn(CCOCCOCCNC(=O)[C@]56CCC(C)(C)C[C@H]5C5=CC[C@@H]7[C@@]8(C)CC[C@H](O)C(C)(C)[C@@H]8CC[C@@]7(C)[C@]5(C)CC6)nn4)nn3)CC[C@]3(C)C(=CC[C@@H]4[C@@]5(C)CC[C@H](O)C(C)(C)[C@@H]5CC[C@]43C)[C@@H]2C1 | > 30 | 18.1 | 97.2 | 97.28 | > 1.66 |  |  |  |  | 
